Twelve compounds from ChEMBL document CHEMBL1201862, “PubChem BioAssay data set” (2004) can be followed below.

Among the test systems are A498; CAKI-1; COLO 205; DU-145; HL-60; IGROV-1; K562; MCF7; MDA-MB-435; MOLT-4; Malme-3M; NCI-H226; NCI-H522; OVCAR-3; RXF 393; SF-268; SR; UACC-257; UO-31; MDA-MB-231.
Common to all, as to assay: growth of human tumour cells (NCI), 48 h

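Protocol summary: plate cells (96-well), add compound at 5 concentrations, incubate 48 h, interpolate endpoints linearly. GI50 is the concentration that inhibits growth by half.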 Activity calls are given as the source filed them. No stated cut-off is given here; in the data, active = GI50 up to about 1.1 µM and inactive = higher.

`CN(C)CCNC(=O)c1cc([N+](=O)[O-])cc2c1Oc1ccccc1O2`: the GI50 in the test on A498 was 25.1 µM (inactive); in the test with CAKI-1 it was 15.6 µM (inactive); in the test with COLO 205 it was 13.7 µM (inactive); in the test with DU-145, 37.8 µM (inactive); with HL-60 it was 18.9 µM (inactive); with IGROV-1, 23.4 µM (inactive). In addition, the GI50 is 23.2 µM (inactive) in the test with K562; 23.1 µM (inactive) in the test on MCF7; 39.7 µM (inactive) in the test on MDA-MB-435; 3.94 µM (inactive) in the test on MOLT-4; 21.7 µM (inactive) in the test on Malme-3M; 12.6 µM (inactive) in the test on NCI-H226. Besides, the GI50 in the test on NCI-H522 is 21.7 µM (inactive); with OVCAR-3, 41.8 µM (inactive); in the test with RXF 393, 18.2 µM (inactive); with SF-268, 21.6 µM (inactive); in the test with SR it was 11.7 µM (inactive); with UACC-257, 29.4 µM (inactive). Besides, the GI50 in the test on UO-31 was 11.4 µM (inactive).

As to `Cc1cc(-c2ccc(C(=O)O)[nH]2)on1`, the GI50 is > 100 µM (inactive) with A498; 79.1 µM (inactive) in the test on CAKI-1; 22.3 µM (inactive) in the test on COLO 205; 62.4 µM (inactive) in the test with DU-145; 50.4 µM (inactive) in the test with IGROV-1; 56 µM (inactive) with K562. Moreover, the GI50 in the test on MCF7 was 39 µM (inactive); with MDA-MB-231, > 100 µM (inactive); in the test on MDA-MB-435, 6.98 µM (inactive); in the test with MOLT-4, > 100 µM (inactive); in the test on Malme-3M it was 38.2 µM (inactive); in the test with NCI-H522 it was 29 µM (inactive). Besides, the GI50 with OVCAR-3 is 32.4 µM (inactive); in the test with RXF 393, 74.8 µM (inactive); in the test on SF-268, > 100 µM (inactive); with UACC-257, > 100 µM (inactive); in the test with UO-31 it was 55.6 µM (inactive).

`CC(=O)OC(CCC1(C)OC1COc1ccc(CCNC(=O)C=C(C)C)cc1)C(C)(C)OC(C)=O` (stereo not given): the GI50 was > 100 µM (inactive) in the test on A498; > 100 µM (inactive) in the test with CAKI-1; 28.2 µM (inactive) in the test on COLO 205; > 100 µM (inactive) with DU-145; > 32.1 µM (inactive) with HL-60; 29.1 µM (inactive) with IGROV-1. In addition, the GI50 was > 100 µM (inactive) with MDA-MB-231; 16.2 µM (inactive) in the test on MDA-MB-435; 8.93 µM (inactive) in the test with MOLT-4; 23.5 µM (inactive) in the test on Malme-3M; > 57 µM (inactive) in the test with NCI-H226; 19.5 µM (inactive) in the test with NCI-H522. Further, the GI50 in the test on OVCAR-3 was 16.8 µM (inactive); in the test with RXF 393, 13.5 µM (inactive); with SF-268, > 61.2 µM (inactive); in the test on SR it was 24.9 µM (inactive); in the test on UACC-257, 0.449 µM (active); in the test with UO-31, 48.9 µM (inactive).

Regarding `O=NN(CCCl)C(=O)NC1CCC(CC2CCC(NC(=O)N(CCCl)N=O)CC2)CC1` (stereo not given), the GI50 in the test with A498 was 31.4 µM (inactive); in the test on CAKI-1 it was 31.3 µM (inactive); in the test on COLO 205, > 48.1 µM (inactive); with HL-60, 16.4 µM (inactive); in the test on IGROV-1, 29.9 µM (inactive); in the test on K562, 2.26 µM (inactive). Besides, the GI50 in the test on MCF7 is 0.316 µM (active); in the test with MOLT-4, 1.21 µM (inactive); in the test with Malme-3M it was 32.3 µM (inactive); in the test on NCI-H226, 79.3 µM (inactive); in the test with NCI-H522, 1.53 µM (inactive); in the test with OVCAR-3 it was 27.8 µM (inactive). In addition, the GI50 with RXF 393 is 1.66 µM (inactive); in the test with SF-268 it was 0.836 µM (active); in the test with SR it was 17.9 µM (inactive); with UACC-257 it was 3.29 µM (inactive); in the test on UO-31 it was 46.1 µM (inactive).

As to `O=P1(Oc2ccc(Cl)cc2Cl)Oc2ccc3ccccc3c2-c2c(ccc3ccccc23)O1`, the GI50 in the test with A498 is 24.8 µM (inactive); with CAKI-1, 21 µM (inactive); with COLO 205, 46.5 µM (inactive); with HL-60 it was 22.9 µM (inactive); in the test with IGROV-1, 26.9 µM (inactive); with K562 it was 31.4 µM (inactive). In addition, the GI50 is 33.7 µM (inactive) in the test on MCF7; 19.9 µM (inactive) with MOLT-4; 21.9 µM (inactive) in the test on Malme-3M; 23.3 µM (inactive) in the test on NCI-H226; 19.5 µM (inactive) in the test on NCI-H522; 22.5 µM (inactive) in the test with OVCAR-3. Moreover, the GI50 is 16 µM (inactive) in the test with RXF 393, 34.7 µM (inactive) in the test with SF-268, 59 µM (inactive) with UACC-257 and 20.4 µM (inactive) in the test with UO-31.

Regarding `CCOC(=O)CCC(C(=O)OCC)n1nnc2ccc(Nc3c(C)[n+]([O-])c4cc(F)c(OCC)cc4[n+]3[O-])cc21` (stereo not given), the GI50 in the test with A498 was > 100 µM (inactive); in the test with CAKI-1, 66.1 µM (inactive); in the test with COLO 205 it was 28.2 µM (inactive); with DU-145, 58.9 µM (inactive); in the test on HL-60, 36.8 µM (inactive); with IGROV-1 it was 48.1 µM (inactive). For the same compound, the GI50 was 41.4 µM (inactive) in the test on K562; 22.5 µM (inactive) in the test with MCF7; 42.9 µM (inactive) with MDA-MB-435; 44.7 µM (inactive) in the test with MOLT-4; 35.6 µM (inactive) in the test on Malme-3M; 48.5 µM (inactive) in the test with NCI-H226. Besides, the GI50 is 61.7 µM (inactive) with NCI-H522; 25.4 µM (inactive) with OVCAR-3; 41.8 µM (inactive) with RXF 393; 28 µM (inactive) with SF-268; 36.5 µM (inactive) in the test on SR; 21.2 µM (inactive) in the test on UACC-257. Moreover, in the test with UO-31, the GI50 is 54 µM (inactive).

`CC1(C)CCC2=C(O1)c1ccccc1/C(=N/c1ccc([N+](=O)[O-])cc1)C2=O`: the GI50 is 18.7 µM (inactive) with A498; 16.7 µM (inactive) with CAKI-1; 0.728 µM (active) in the test with HL-60; 51.1 µM (inactive) with IGROV-1; 13.4 µM (inactive) in the test on K562; 13.2 µM (inactive) in the test on MCF7. For the same compound, the GI50 with MDA-MB-231 is 17.7 µM (inactive); in the test with MOLT-4, 13.8 µM (inactive); in the test with Malme-3M, 16 µM (inactive); with NCI-H226 it was 12.4 µM (inactive); in the test with NCI-H522 it was 13.6 µM (inactive); with OVCAR-3, 12.3 µM (inactive). The GI50 in the test on RXF 393 is 16.5 µM (inactive); with SF-268, 29.7 µM (inactive); with SR, 14.2 µM (inactive); in the test on UACC-257, 16.5 µM (inactive); with UO-31, 10.6 µM (inactive).

For `O=C1CCCn2c3ccccc3c3ccnc1c32`, the GI50 in the test on A498 was 14.9 µM (inactive); in the test with CAKI-1, 17.3 µM (inactive); with COLO 205, 41.8 µM (inactive); in the test with HL-60 it was 6.89 µM (inactive); in the test with IGROV-1, 34.2 µM (inactive); with K562, 40.5 µM (inactive). The GI50 in the test with MCF7 is 36.1 µM (inactive); with MOLT-4, 30.8 µM (inactive); in the test with Malme-3M, 35.1 µM (inactive); with NCI-H226 it was 19.4 µM (inactive); in the test with NCI-H522, 34.8 µM (inactive); in the test with OVCAR-3 it was 37.7 µM (inactive). Further, the GI50 with RXF 393 was 24.8 µM (inactive); in the test on SF-268, 30 µM (inactive); with UACC-257, 29.9 µM (inactive); in the test with UO-31, 35 µM (inactive).

Take `CCOC(OCC)(OCC)C(Br)CC` (stereo not given): the GI50 in the test on A498 is > 100 µM (inactive); in the test with CAKI-1, > 100 µM (inactive); in the test on COLO 205 it was 31.8 µM (inactive); with HL-60 it was > 100 µM (inactive); in the test with IGROV-1 it was > 100 µM (inactive); with K562, > 100 µM (inactive). Besides, the GI50 with MOLT-4, with Malme-3M, in the test with NCI-H226, with NCI-H522, in the test with OVCAR-3 and in the test with RXF 393 was > 100 µM (inactive) each time. Moreover, the GI50 in the test on SF-268 is 36.7 µM (inactive); in the test on SR, 21.6 µM (inactive); in the test with UACC-257 it was > 100 µM (inactive); in the test on UO-31, > 100 µM (inactive).

`NC(CCCCP(=O)(O)O)C(=O)O` (stereo not given): the GI50 is 14.3 µM (inactive) in the test with CAKI-1; > 100 µM (inactive) in the test with COLO 205; > 100 µM (inactive) with DU-145; > 100 µM (inactive) in the test with HL-60; > 100 µM (inactive) with IGROV-1; > 100 µM (inactive) in the test on K562. For the same compound, the GI50 in the test on MDA-MB-231 is > 100 µM (inactive); in the test on MDA-MB-435, > 100 µM (inactive); with MOLT-4, > 100 µM (inactive); with NCI-H522, 26.9 µM (inactive); in the test on OVCAR-3, > 100 µM (inactive); in the test with RXF 393, > 100 µM (inactive). In addition, the GI50 with SF-268, in the test with SR, in the test with UACC-257 and with UO-31 was > 100 µM (inactive) throughout.

Regarding `COc1ccc(C2=NNC(c3cc4cc(Br)ccc4nc3Cl)C2)cc1` (stereo not given), the GI50 was > 25 µM (inactive) in the test on A498; 12.6 µM (inactive) in the test on CAKI-1; 11.7 µM (inactive) in the test on COLO 205; 11.7 µM (inactive) with DU-145; 6.19 µM (inactive) in the test on HL-60; 9.42 µM (inactive) in the test with IGROV-1. The GI50 with K562 was 6.21 µM (inactive); with MCF7, 6.67 µM (inactive); with MDA-MB-435, 7.16 µM (inactive); in the test with MOLT-4 it was 3.82 µM (inactive); in the test with NCI-H226, 0.0107 µM (active); with OVCAR-3, 18.2 µM (inactive). Besides, the GI50 in the test with SR is 0.185 µM (active); in the test with UACC-257, 12.2 µM (inactive); in the test on UO-31, 13.1 µM (inactive).

`O=C1CSSCC(=O)Nc2ccccc2N1`: the GI50 in the test on A498, in the test on CAKI-1, in the test on COLO 205, in the test on DU-145, in the test on HL-60 and in the test with IGROV-1 was > 100 µM (inactive) throughout. For the same compound, the GI50 with K562 is > 100 µM (inactive); with MDA-MB-231, > 100 µM (inactive); in the test on MDA-MB-435 it was > 100 µM (inactive); in the test on MOLT-4 it was 55.6 µM (inactive); in the test on Malme-3M, > 100 µM (inactive); with NCI-H226, > 100 µM (inactive). The GI50 with NCI-H522, with OVCAR-3, with RXF 393, in the test with SF-268, in the test on SR and with UACC-257 was > 100 µM (inactive) each time. For the same compound, the GI50 with UO-31 was > 100 µM (inactive).
